Measurements published in paper PMC8443647, “Hybrid derivative of cathelicidin and human beta defensin-2 against Gram-positive bacteria: A novel approach for the treatment of bacterial keratitis” (Scientific Reports, 2021).
“And” between values parts separate entries of the source, which are not always exact repeats. Equal values may be shown once. Read-outs that look alike come from different tables or passages of the source. Values belong to the compound of their own block, whether it stands above or below them. Bridge positions count the residues as written; N and C are the ends. Ends that are not written are not given here. Peptide text beside a SMILES is read from it.

Experiments:
[1] = system: S. aureus ATCC 29213; assay: Murine S. aureus keratitis model (in vivo efficacy); set-up: species or system Staphylococcus aureus; C57BL/6J mice; details: levofloxacin 0.5%
Procedure: Based on the in vivo safety data, the highest tolerable concentration of CaD23, 500 μg/ml (0.05%), was used in the subsequent S. aureus keratitis murine model. Levofloxacin 0.5%, a commonly used antibiotic for BK in clinical setting, and PBS were used as the positive and negative controls, respectively.
All mice were randomly allocated to each treatment group (n = 5 mice/group). Slit-lamp examination was performed before the start of experiment to confirm the health of corneas. […] 10 μl of ~ 1 × 10^8 CFU/ml of ATCC SA29213 was applied topically onto the cornea and the lid was held shut for 1 min. […] The eyes were monitored daily using slit-lamp biomicroscopy and photography. Ocular clinical scoring was adapted from a previous method described by Clemens et al.[52] with minor modifications: (a) 0: Clear cornea or minimal opacity, partially covering the pupil; (b) + 1: Mild opacity, partially/fully covering the pupil; (c) + 2: Dense opacity, partially covering the pupil; (d) + 3: Dense opacity fully covering the pupil; and (e) + 4: Corneal perforation or phthisis.
At the end of day 3, all animals were sacrificed, and the infected eyes were enucleated. The whole corneas were subsequently dissected and homogenized in 1 ml of sterile PBS using sterile glass micro-beads. The homogenised infected corneal tissue suspension was serially diluted in 1:10 and plated on TSA plates in triplicates for enumeration of CFU after 24 h incubation at 37 °C.

[2] = system: P. aeruginosa PAO1-L; assay: microbe, parasite or virus in culture; assay type: cell-based
From the text: (§1) A range of Gram-positive and Gram-negative laboratory- and clinical-strain bacteria were used for the experiments. These included laboratory-strain methicillin-sensitive S. aureus (MSSA; including SH1000 and ATCC SA29213), laboratory-strain MRSA (ATCC MRSA43300), clinical-strain MRSA (MRSA-OS; an IK isolate), laboratory-strain methicillin-sensitive Staphylococcus epidermidis (MSSE; ATCC SE12228), laboratory invasive-strain P. aeruginosa (PAO1-L), and clinical cytotoxic-strain P. aeruginosa (PA-OS; an IK isolate).
(§2) In vitro antimicrobial efficacy of the antibiotics and designed HDPs was determined using an established MIC assay with broth microdilution method approved by the Clinical and Laboratory Standards Institute (CLSI)[64]. Briefly, the microorganisms were cultured on Tryptone Soya Agar (TSA) and incubated overnight for 18–21 h at 37 °C. Bacterial inoculums were subsequently prepared using the direct colony suspension method. Three to five bacterial colonies were obtained from the agar plate and inoculated into an Eppendorf tube containing 1 ml of cation-adjusted Muller-Hinton broth (caMHB), consisting of 20–25 mg/L calcium ions (Ca^2+) and 10–12.5 mg/L magnesium ions (Mg^2+). The bacterial suspension was adjusted to achieve a turbidity equivalent to 0.1 OD600 or 0.5 MacFarland, containing ~ 1.5 × 10^8 colony-forming unit (CFU)/ml, which was then further diluted in 1:150 in caMHB to reach a final bacterial concentration of ~ 1 × 10^6 colony forming units (CFU)/ml. Each treatment (peptide or antibiotic) was prepared in 1:2 serial dilution in 96-well polypropylene microplates (with a final treatment volume of 50 μl per well), followed by the addition of 50 μl of 1 × 10^6 CFU/ml bacteria into each well (with a final bacterial concentration of 5 × 10^5 CFU/ml).

[3] = system: P. aeruginosa PA-OS; assay: microbe, parasite or virus in culture; assay type: cell-based; details: Pseudomonas aeruginosa, 24 h, caMHB, read-out: MIC
From the text: as §1, §2

[4] = system: human corneal epithelial cells (HCE-2); assay: in vitro; assay type: cell-based
Procedure: (§3) Cell viability and cytotoxicity of antibiotics and peptides were determined against human corneal epithelial cells (HCE-2, CRL-11135, ATCC, Manassas, Virginia, USA) using cell-counting-kit-8 (CCK-8) assay (Sigma Aldrich, Merck Life Science UK Limited, Dorset, UK) and lactate dehydrogenase (LDH) assay (ThermoFisher Scientific, UK), respectively, as per manufacturer’s guidelines. HCE-2 cells were cultured and seeded into a 96-well plate at a density of 7.5 × 10^3 cells/well and allowed to attach overnight and grew to 80–90% confluency in keratinocyte serum free medium (KSFM) supplemented with human recombinant epidermal growth factor, bovine pituitary extract, hydrocortisone, and insulin. Once the confluency reached 80–90%, the cells were incubated with treatment for 3 h before OD450 measurement was taken using BMG Clariostar microplate reader (BMG Labtech Ltd., Aylesbury, UK). Appropriate controls were used, including 0.1% Triton X-100 as positive control and KSFM as negative control. Cell viability was calculated using the following formula: [([…]) × 100; I = intensity] and cytotoxicity was calculated using the following formula: [((Itreatment – INC)/(IPC – INC)) × 100].

[5] = in vitro; assay type: cell-based, human; details: human
Procedure: as §3

[6] = system: human corneal epithelial cells (HCE-2); assay: cells; assay type: cell-based; details: 3 h
Procedure: as §3

[7] = system: fresh human erythrocytes; assay: Hemolytic assay; assay type: cell-based; details: 1 h
Procedure: (§4) Ethical approval was obtained from the Local Research Ethics Committee of University of Nottingham prior to the experiment (Ref: 176-1812). The experiment was conducted in accordance with the relevant guidelines and regulations. Hemolytic assay was performed according to the previously established protocol. Briefly, 5 ml of fresh human blood was collected from healthy participants with written informed consent, in an EDTA tube and centrifuged for 10 min at 1300g at 10 °C for separation of plasma. The remaining erythrocytes were rinsed and centrifuged further three times in Ca^2+/Mg^2+ free Dulbecco’s phosphate-buffered saline (DPBS). Subsequently, erythrocytes were diluted to 8% v/v in DPBS and incubated with 100 μl of treatment, positive control (1% Triton X-100) and negative control (DPBS), all in 1:1 ratio, for 1 h (final erythrocytes concentration = 4% v/v). After 1 h of incubation, the plate was centrifuged at 500×g for 5 min and 100 μl of supernatant of each well was transferred into a 96-well plate for measurement at OD540. Hemolysis (%) was calculated as [(Itreatment – INC)/(IPC – INC)] × 100.

[8] = Hemolytic assay; assay type: cell-based; details: human, Hmax (%): percentage of hemolysis at 200 µg/ml
Procedure: as §4

[9] = system: S. aureus SH1000; assay: microbe, parasite or virus in culture; assay type: cell-based, Staphylococcus aureus
From the text: as §1, §2

[10] = system: MRSA-OS; assay: microbe, parasite or virus in culture; assay type: cell-based, Staphylococcus aureus; details: 24 h
From the text: as §1, §2

[11] = system: Gram-positive or Gram-negative bacteria; assay: MIC assay, all tested organisms summarised; assay type: cell-based; details: summary over the organisms tested, without salt
From the text: as §1
In vitro antimicrobial efficacy of the antibiotics and designed HDPs was determined using an established MIC assay with broth microdilution method approved by the Clinical and Laboratory Standards Institute (CLSI)[64]. Briefly, the microorganisms were cultured on Tryptone Soya Agar (TSA) and incubated overnight for 18–21 h at 37 °C. Bacterial inoculums were subsequently prepared using the direct colony suspension method. Three to five bacterial colonies were obtained from the agar plate and inoculated into an Eppendorf tube containing 1 ml of cation-adjusted Muller-Hinton broth (caMHB), consisting of 20–25 mg/L calcium ions (Ca^2+) and 10–12.5 mg/L magnesium ions (Mg^2+). […]

[12] = 0 mM NaCl, caMHB, 24 h, listed as LL-37
[13] = 0 mM NaCl, caMHB, 24 h, read-out: MIC

MIC ([2]; Pseudomonas aeruginosa, PAO1, 24 h, 0 mM NaCl, caMHB, 24 h, read-out: MIC): 0.31 µg/mL and 0.86 µM
MIC ([2]; Pseudomonas aeruginosa, PAO1, 24 h, 150 mM NaCl, caMHB, 24 h, read-out: MIC): 0.31 µg/mL and 0.86 µM
MIC ([3]; 0 mM NaCl): 0.31 µg/mL and 0.86 µM
MIC ([3]; 150 mM NaCl): 0.31 µg/mL and 0.86 µM
MIC ([9]; Staphylococcus aureus, SH1000, 24 h, 0 mM NaCl, caMHB, 24 h, read-out: MIC): 0.31 µg/mL and 0.86 µM
MIC ([9]; Staphylococcus aureus, SH1000, 24 h, 150 mM NaCl, caMHB, 24 h, read-out: MIC): 0.31 µg/mL and 0.86 µM
MIC ([10]; 150 mM NaCl, caMHB): 0.31 µg/mL
MIC ([10]; 150 mM NaCl, caMHB, read-out: MIC): 0.86 µM
MIC ([10]; Staphylococcus aureus, MRSA, 0 mM NaCl, caMHB, read-out: MIC): 0.31 µg/mL and 0.86 µM
Compound: C[C@H]1COc2c(N3CCN(C)CC3)c(F)cc3c(=O)c(C(=O)O)cn1c23 [Levofloxacin, levofloxacin, reference compound]
S. aureus bacterial viability ([1]; CaD23 0.05%, after 3 days of treatment, median ± IQR): 2.4 ± 2.2 log10 CFU/ml
Reduction of S. aureus bacterial viability compared to PBS group ([1]; CaD23 0.05%, topical 4 times a day for 3 days, median): 98%
Ocular clinical scoring ([1]; day 3 post-treatment, CaD23 0.05%, scale 0 to +4): 1.0 ± 0.71
Median reduction in the bacterial bioburden compared to the PBS group [1]: 1.8 logCFU
Lmax (%): percentage of cytotoxicity at 200 µg/ml ([4]; human, 3 h, 200 µg/ml): 1.2 (0.7) %
CC50 at 3 h [5]: > 200 µg/mL
Imax (%): percentage of inhibition of cell viability at 200 µg/ml ([6]; HCE-2, CCK-8 assay, 200 µg/ml, mean (SD)): 108.0 (2.8) %
IC50 ([6]; Homo sapiens, Corneal epithelial cell, HCE-2, CCK-8 assay, mean (SD), read-out: IC50 (concentration causing 50% inhibition of cell viability)): > 200 µg/mL
HC50 (concentration causing 50% hemolysis) [7]: > 200 µg/mL
hemolysis at 1 h, 200 µg/ml [8]: 0%

Compound: CC[C@H](C)[C@H](NC(=O)[C@H](CCCNC(=N)N)NC(=O)[C@H](CCC(N)=O)NC(=O)[C@@H](NC(=O)[C@@H](NC(=O)[C@H](CCCNC(=N)N)NC(=O)[C@@H](N)CCCCN)[C@@H](C)CC)C(C)C)C(=O)N[C@@H](CCCCN)C(=O)N[C@@H](CC(=O)O)C(=O)N[C@@H](Cc1ccccc1)C(=O)N[C@@H](CC(C)C)C(=O)N[C@@H](CCCNC(=N)N)C(=O)N[C@@H](CCCCN)C(=O)N[C@@H](CS)C(=O)N[C@@H](CS)C(=O)N[C@@H](CCCCN)C(=O)N[C@@H](CCCCN)C(=O)N1CCC[C@H]1C(=O)O [CaD2, KRIVQRIKDF LRKCCKKP] (H-KRIVQRIKDFLRKCCKKP-OH; N-terminus and C-terminus assumed)
MIC ([2]; PAO1, 24 h): > 200 µg/mL
Lmax (%): percentage of cytotoxicity at 200 µg/ml [4]: 2.9 (2.2) %
CC50 at 3 h [5]: > 200 µg/mL
IC50 (concentration causing 50% inhibition of cell viability) [6]: > 200 µg/mL
MIC ([9]; SH1000, 24 h): > 200 µg/mL
MIC ([10]; -OS): > 200 µg/mL

Compound: CC[C@H](C)[C@H](NC(=O)[C@H](CCCCN)NC(=O)[C@H](CCC(=O)O)NC(=O)[C@H](CCCCN)NC(=O)[C@H](CO)NC(=O)[C@H](CCCCN)NC(=O)[C@H](CCCNC(=N)N)NC(=O)[C@H](Cc1ccccc1)NC(=O)[C@H](Cc1ccccc1)NC(=O)[C@H](CC(=O)O)NC(=O)CNC(=O)[C@H](CC(C)C)NC(=O)[C@@H](N)CC(C)C)C(=O)NCC(=O)N[C@@H](CCCCN)C(=O)N[C@@H](CCC(=O)O)C(=O)N[C@@H](Cc1ccccc1)C(=O)N[C@@H](CCCCN)C(=O)N[C@@H](CCCNC(=N)N)C(=O)N[C@H](C(=O)N[C@H](C(=O)N[C@@H](CCC(N)=O)C(=O)N[C@@H](CCCNC(=N)N)C(=O)N[C@H](C(=O)N[C@@H](CCCCN)C(=O)N[C@@H](CC(=O)O)C(=O)N[C@@H](Cc1ccccc1)C(=O)N[C@@H](CC(C)C)C(=O)N[C@@H](CCCNC(=N)N)C(=O)N[C@@H](CC(N)=O)C(=O)N[C@@H](CC(C)C)C(=O)N[C@H](C(=O)N1CCC[C@H]1C(=O)N[C@@H](CCCNC(=N)N)C(=O)N[C@H](C(=O)N[C@@H](CCC(=O)O)C(=O)N[C@@H](CO)C(=O)O)[C@@H](C)O)C(C)C)[C@@H](C)CC)C(C)C)[C@@H](C)CC [LL37, LLGDFFRKSKEKIGKEFKRIVQRIKDFLRNLVPRTES, reference compound]
MIC [11]: 25 to 50 µg/mL
MIC ([2]; 0 mM NaCl, caMHB, 24 h): 50 µg/mL
MIC [2, 12]: 50 µg/mL
MIC [2, 13]: 11.1 µM
MIC ([9]; 0 mM NaCl, caMHB, 24 h): 25 µg/mL
MIC [9, 12]: 25.0 µg/mL
MIC [9, 13]: 5.6 µM
MIC ([10]; 0 mM NaCl, caMHB): 25 µg/mL
MIC ([10]; 0 mM NaCl, caMHB, listed as LL-37): 25 µg/mL
MIC ([10]; 0 mM NaCl, caMHB, read-out: MIC): 5.6 µM

Compound: GIGDPVTCLKSGAICHPVFCPRRYKQIGTCGLPGTKCCKKP (disulfide 8-37, 15-30, 20-38 (inferred)) [HBD2, GIGDPVTCLKSGAICHPVFCPRRYKQIGTCGLPGTKCCKKP]
MIC [11]: 100 µg/mL
